Measurements as given in publication PMC6580635, “Neuropilin-1 drives tumor-specific uptake of chlorotoxin” (Cell Communication and Signaling : CCS, 2019).
Peptide text beside a SMILES is read from it. * marks the point of attachment. Biotin = O=C1N[C@H]2[C@H](CS[C@H]2CCCCC(=O)*)N1; Cam = NC(=O)C*

T1: NRP1 (Homo sapiens, UniProt O14786)
T1 construct: purchased Sino Biological Inc. 10011-H02H
T1 sequence (O14786 22-644 isoform O14786-2 limits assumed): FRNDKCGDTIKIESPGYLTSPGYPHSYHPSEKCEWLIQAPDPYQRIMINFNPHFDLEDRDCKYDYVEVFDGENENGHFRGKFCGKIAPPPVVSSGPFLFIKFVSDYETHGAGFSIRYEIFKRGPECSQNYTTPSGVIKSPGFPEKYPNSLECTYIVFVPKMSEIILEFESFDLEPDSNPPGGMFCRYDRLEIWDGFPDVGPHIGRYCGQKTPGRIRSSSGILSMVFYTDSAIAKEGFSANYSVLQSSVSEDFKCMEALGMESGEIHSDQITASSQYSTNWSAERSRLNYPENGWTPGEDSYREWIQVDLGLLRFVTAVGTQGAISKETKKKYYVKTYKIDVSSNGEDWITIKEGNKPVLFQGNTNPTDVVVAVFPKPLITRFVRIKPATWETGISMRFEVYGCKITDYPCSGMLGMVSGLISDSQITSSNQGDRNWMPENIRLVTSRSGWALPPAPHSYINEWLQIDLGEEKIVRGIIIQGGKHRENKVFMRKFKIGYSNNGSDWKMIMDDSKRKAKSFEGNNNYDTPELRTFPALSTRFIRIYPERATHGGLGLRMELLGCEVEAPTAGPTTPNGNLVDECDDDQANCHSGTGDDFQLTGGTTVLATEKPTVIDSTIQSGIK

T2: Neuropilin-1 (NRP1) (UniProt O14786 22-856)
T2 construct: The R&D Systems NRP1 Phe22-Lys644 (Cat# 3870-N1) was only a control in Western blots
T2 sequence (looked up): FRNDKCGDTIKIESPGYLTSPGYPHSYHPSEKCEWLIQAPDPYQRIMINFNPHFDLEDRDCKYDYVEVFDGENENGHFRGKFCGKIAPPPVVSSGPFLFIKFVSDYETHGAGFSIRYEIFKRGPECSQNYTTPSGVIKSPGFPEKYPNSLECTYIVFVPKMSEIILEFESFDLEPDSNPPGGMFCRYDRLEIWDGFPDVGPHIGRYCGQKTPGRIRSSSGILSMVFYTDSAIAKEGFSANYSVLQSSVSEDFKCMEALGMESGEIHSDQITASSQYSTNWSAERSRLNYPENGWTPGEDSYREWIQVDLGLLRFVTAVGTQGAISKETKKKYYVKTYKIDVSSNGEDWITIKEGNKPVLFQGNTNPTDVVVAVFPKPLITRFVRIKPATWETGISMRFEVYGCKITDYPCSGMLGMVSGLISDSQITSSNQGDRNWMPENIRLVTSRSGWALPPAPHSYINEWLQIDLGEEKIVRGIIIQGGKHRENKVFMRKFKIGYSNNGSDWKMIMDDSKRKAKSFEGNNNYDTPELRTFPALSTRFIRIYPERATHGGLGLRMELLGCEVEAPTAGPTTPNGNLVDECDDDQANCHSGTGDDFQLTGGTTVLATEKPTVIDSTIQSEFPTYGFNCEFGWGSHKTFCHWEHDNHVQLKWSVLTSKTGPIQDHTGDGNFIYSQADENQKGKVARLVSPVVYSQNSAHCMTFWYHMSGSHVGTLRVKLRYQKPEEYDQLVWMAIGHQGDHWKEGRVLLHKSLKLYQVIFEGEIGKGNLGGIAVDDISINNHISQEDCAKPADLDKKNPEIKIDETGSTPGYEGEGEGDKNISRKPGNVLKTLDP

B1: Biotinylated VEGF165 (ligand)
chain: APMAEGGGQNHHEVVKFMDVYQRSYCHPIETLVDIFQEYPDEIEYIFKPSCVPLMRCGGCCNDEGLECVPTEESNITMQIMRIKPHQGQHIGEMSFLQHNKCECRPKKDRARQENPCGPCSERRKHLFVQDPQTCKCSCKNTDSRCKARQLELNERTCRCDKPRR
modifications: biotin

Experiments:
[1] = target: T1, NRP1; assay: Bio-layer interferometry (Octet) binding of Cltx and derived peptides to NRP1; conditions: BLI; biotinylated peptides on streptavidin biosensors, NRP1 0 to 1750 nM; mean of 2 to 6 independent experiments; ns = no significant binding
Description: Octet binding studies required biotinylation of Cltx and derived peptides for loading onto streptavidin biosensors. Trypsin, (Promega Cat# V5280) (~ 40 μg/mL) was added to Cltx biotinylated at K27 or N-terminus (10 mg/mL) and incubated for 24 h at 37 °C, pH 8.5. The resulting peptides were separated by preparative HPLC and peptide fragments were characterized by MALDI. Small linear Cltx-derived peptides were also synthesized by routine methods and were biotinylated at the N-terminus. In some cases, peptides were reduced with TCEP at pH 8 and the cysteine residues were capped using iodoacetamide.
Assessment of binding between NRP1and Cltx was performed by Bio-Layer Interferometry (BLI) using the Octet Red96 System (ForteBio, Pall). Cltx and derived fragments were captured on streptavidin biosensors (Cat# 18–5020) under approximately equivalent loading conditions; sensors were then quenched with EZ-Link Biocytin and washed in assay buffer (PBS, 1% BSA, 0.05% Tween20).

[2] = target: T1, NRP1; assay: BLI competition with biotinylated VEGF165 for binding to NRP1; conditions: NRP1 fixed at 390 nM, Cltx peptide 50 to 800 μmol/L
[3] = system: crayfish; assay: Crayfish bioassay (neurotoxicity, paralysis); assay type: in vivo; conditions: 20 µg per injection, n=8 crayfish; Kaplan-Meier analysis
Description: The crayfish assay to determine bioactivity of Cltx was performed at ABC Labs (Columbia, MO, now EAG Labs) using an SOP generated by TransMolecular Inc. Cltx peptide (20 μg) in sterile water was injected through the ventral surface of the thorax in the region of the sub-esophageal ganglion of crayfish which were then subjected to physical challenge defined as multiple, continuous, gentle prods in random parts of the body from head to tail. The animal’s response is based on avoidance, ability to right itself, and clasping with chelae in a defensive manner. Time from injection to total incapacitation was recorded; total incapacitation is defined as the time when the tested crayfish is not responsive when physically challenged.

[4] = target: T2, Neuropilin-1 (NRP1); assay: BLI; affinity of NRP1 for VEGF given beside the peptides of Table 1; set-up for VEGF not told separately; conditions: both partners purified

Molecule | Kd [1] | also measured
CSCC[C@H](NC(=O)CCCC[C@@H]1SC[C@@H]2NC(=O)N[C@@H]21)C(=O)N[C@H]1CSSC[C@@H](C(=O)N[C@@H](Cc2ccccc2)C(=O)N[C@H](C(=O)N[C@H](C(=O)N[C@@H](CC(=O)O)C(=O)N[C@@H](Cc2c[nH]cn2)C(=O)N[C@@H](CCC(N)=O)C(=O)N[C@@H](CCSC)C(=O)N[C@@H](C)C(=O)N[C@@H](CCCNC(=N)N)C(=O)O)[C@@H](C)O)[C@@H](C)O)NC(=O)[C@@H]2CCCN2C(=O)[C@H](CCSC)NC1=O [C00003] | 167 nM | 
CC(C)C[C@H](NC(=O)[C@H](CSCC(N)=O)NC(=O)[C@H](CCC(N)=O)NC(=O)[C@@H]1CCCN1C(=O)CNC(=O)[C@H](Cc1ccc(O)cc1)NC(=O)CCCC[C@@H]1SC[C@@H]2NC(=O)N[C@@H]21)C(=O)N[C@@H](CSCC(N)=O)C(=O)N[C@@H](CCCNC(=N)N)C(=O)O [C00008] (Biotin-YGPQC(Cam)LC(Cam)R-OH) | 297 nM | 
CC(C)C[C@H](NC(=O)[C@H](CSCC(N)=O)NC(=O)CCCC[C@@H]1SC[C@@H]2NC(=O)N[C@@H]21)C(=O)N[C@@H](CSCC(N)=O)C(=O)N[C@@H](CCCNC(=N)N)C(=O)O [C00011] (Biotin-C(Cam)LC(Cam)R-OH) | 335 nM | 
Chlorotoxin [Cltx-CONH2] |  | Competition with biotinylated VEGF for binding to NRP1 [2]: not; Median time to paralysis (total incapacitation) [3]: 25 s
B1 |  | Kd [4]: ~50 nM
